Values quoted from earlier work, collected in US20220265565A1, “NANOTECHNOLOGY-BASED DELIVERY SYSTEM OF BERGAMOT ESSENTIAL OIL, METHOD OF PREPARATION OF THE SYSTEM AND USES THEREOF” (priority 2019, published 2022).

Columns and labels:
[1] = tested on: nociceptive response in the capsaicin test; conditions: for nociceptive response in the capsaicin test: intraplantar (i.pl.) administration
[2] = tested on: PSNL-induced neuropathic pain symptoms in mice
[3] = about 0.2% in the nonvolatile residue of BEO

Compound | nociceptive response in the capsaicin test [1] | morphine-induced antinociception with combined injection ([1]; morphine i.p. or i.t. combined with i.pl. injection of the substance) | neuropathic pain symptoms / mechanical allodynia ([2]; neuropathic pain models, PSNL mice, i.pl. injection) | morphine-induced anti-allodynic effect ([2]; under neuropathic pain) | phototoxicity [3]
C=CC(C)(CCC=C(C)C)OC(C)=O (stereo not drawn) [linalyl acetate] | reduced the nociceptive response | – | – | – | –
C=CC(C)(O)CCC=C(C)C (stereo not drawn) [linalool] | reduced the nociceptive response | markedly enhanced | reduced partial sciatic nerve ligation (PSNL)-induced neuropathic pain symptoms | modulate morphine-induced anti-allodynic effect | –
COc1c2ccoc2cc2oc(=O)ccc12 [bergapten, 5-methoxypsoralen] | – | – | – | – | responsible for the phototoxicity of BEO
